The text below walks through data of patent publication US9534004B2, “Crystalline forms of ceftaroline fosamil” (Sandoz AG, priority 2012, dated 2017).

Structures are written as SMILES.

Holding throughout (assay type): physicochemical
Data set [1] in a line: Storage at different relative humidities (composition / pKa constancy). As to conditions: for change of composition when stored at different relative humidities: pKa of the drug substance not affected. The source says:
Both ceftaroline fosamil acetic acid solvate monohydrate and ceftaroline fosamil propionic acid solvate monohydrate of EP1310502 A1 contain carbon acids in their crystal structure. […] Consequently in order to avoid batch-wise adjusting of the pH adjusting excipient, ceftaroline fosamil acetic acid solvate monohydrate and ceftaroline fosamil propionic acid solvate monohydrate of EP1310502 A1 need to be stored at low relative humidities in order to ensure a constant carbon acid amount and therefore a constant pKa value of the drug substance.

A short description of data set [2]: Humidity and temperature controlled XRPD (sorptive/desorptive cycle, 0-90% RH). Conditions: RH varied between 0 and 90%, 25° C. The source says:
The positions of certain XRPD peaks of form H change when varying the RH between 0 and 90%. XRPD measurements in this range show anisotropic peak shifts to higher 2-theta angles on drying, which are reversible when increasing the relative humidity. These shifts are due to the shrinkage respectively the expansion of the unit cell caused by humidity dependent water contents in the sample. […] Table 1 lists some characteristic XRPD peaks from diffractograms recorded at increasing relative humidities during the sorptive cycle of the experiment.
For humidity and temperature controlled XRPD measurements samples were equilibrated in a VGI 2000M humidity chamber (SMS, Middlesex UK) with integrated peltier heat pump, circulating fluid pump and water reservoir to ensure uniform temperature distribution and stable sample humidities. RH controlled sorptive and desorptive measurements were recorded between 0%-90% RH+/−0.3% RH in 10% steps with an equilibrium time of 2 hours between consecutive measurements.

Another data set in a line: Residual solvent content. Conditions: form obtained from slurry in aqueous ethanol. From the text: The amounts of residual solvents of the novel forms H and D of ceftaroline fosamil of the present invention are well within the allowed ICH-limits. E.g. for the production of form H of ceftaroline fosamil of the present invention no organic solvent is used as this specific form is obtained from a slurry in water. Form D is obtained from a slurry of ceftaroline fosamil in aqueous ethanol. […] Therefore ceftaroline fosamil forms H and D are suitable forms for the preparation of a medicament.

On to `CCO/N=C(\C(=O)N[C@@H]1C(=O)N2C(C(=O)[O-])=C(Sc3nc(-c4cc[n+](C)cc4)cs3)CS[C@H]12)c1nsc(NP(=O)(O)O)n1` [ceftaroline fosamil acetic acid solvate monohydrate, reference compound], for which the “fate of carbon acid in the crystal structure at increased relative humidities” value in data set [1] (increased relative humidities, decreased carbon acid amount affects pKa of drug substance) is “partially replaced by water”.

In the case of `CCO/N=C(\C(=O)N[C@@H]1C(=O)N2C(C(=O)[O-])=C(Sc3nc(-c4cc[n+](C)cc4)cs3)CS[C@H]12)c1nsc(NP(=O)(O)O)n1` [form D, ceftaroline fosamil], the “physical (solid form) stability on varying relative humidity, by XRPD” value in data set [2] is “no peak shifts are observed”. In addition, the “change of composition when stored at different relative humidities” value in data set [1] is “only show variations in their water content”. In addition, the “ethanol amount (residual solvent)” value in the data set “Residual solvent content” is reported as “below 0.5%”.

In the case of `CCO/N=C(\C(=O)N[C@@H]1C(=O)N2C(C(=O)[O-])=C(Sc3nc(-c4cc[n+](C)cc4)cs3)CS[C@H]12)c1nsc(NP(=O)(O)O)n1` [form H, ceftaroline fosamil], the “physical (solid form) stability on varying relative humidity, by XRPD” value in data set [2] was “a phase transformation can be excluded”. Moreover, in data set [1], the “change of composition when stored at different relative humidities” value was “only show variations in their water content”.
